Data taken from patent publication US11053205B2, “Phenazine derivatives as antimicrobial agents” (University of Florida Research Foundation, Incorporated, priority 2017, dated 2021).
Values after ≈ are worked out from the molar mass of the structure shown. Like-named read-outs stand apart in the source and are kept apart here. Marks after values point to notes of the source that are not given here.

Key:
MRSA BAA-1707 = experiment: MIC, broth microdilution (CLSI); details: 16 to 18 hours at 37° C.; 0.10 = lowest concentration tested
MRSA BAA-1707 biofilms = experiment: Calgary Biofilm Device (CBD) assay, MBC/MBEC; details: for MRSA BAA-1707 MBEC: biofilm eradication
MRSE 35984 = experiment: MIC, broth microdilution (CLSI); details: for MRSE 35984 MIC: 16 to 18 hours at 37° C.
VRE 700221 = experiment: MIC, broth microdilution (CLSI); details: for VRE 700221 MIC: 16 to 18 hours at 37° C.
MRSE 35984 biofilms = experiment: Calgary Biofilm Device (CBD) assay, MBC/MBEC; details: CBD, biofilm eradication

SMILES	MRSA BAA-1707 MIC (MRSA BAA-1707)	MRSE 35984 MIC (MRSE 35984)	VRE 700221 MIC (VRE 700221)	other results
COCCOCCOCCOCCOC(=O)Oc1c(Br)cc(Br)c2nc3cc(Cl)ccc3nc12 [77A]	0.0005 µM	–	–	–
COCCOCCOCCOCCOC(=O)Oc1c(Br)cc(Br)c2nc3cc(Oc4ccccc4)ccc3nc12 [78A]	0.1 µM	–	–	–
CC1=C(C)C(=O)C(COC(=O)OCOc2c(Br)cc(Br)c3nc4ccccc4nc23)=C(C)C1=O [86A]	2.35 µM	–	–	MRSA BAA-1707 MBEC (MRSA BAA-1707 biofilms; CBD): 75 µM
OC[C@H]1O[C@@H](Oc2c(Br)cc(Br)c3nc4ccccc4nc23)[C@H](O)[C@@H](O)[C@@H]1O [Compound 28]	>100 µM	>100 µM	>100 µM	–
COCCOCCOCCOC(=O)OCOc1c(Br)cc(Br)c2nc3ccccc3nc12 [Compound 30]	>100 µM	>100 µM	>100 µM	–
CS(=O)(=O)N1CCN(C(=O)Oc2c(Br)cc(Br)c3nc4ccccc4nc23)C1=O [Compound 31]	–	0.78 µM	3.13 µM	MRSA BAA-1707 MBEC (MRSA BAA-1707 biofilms; CBD): 75 µM
Oc1c(Br)cc(Br)c2nc3cc(Oc4ccccc4)ccc3nc12 [Compound 34]	0.1 µM	0.1 µM	0.2 µM	MRSA BAA-1707 MBEC (MRSA BAA-1707 biofilms; CBD): 2.35 µM
CCN(CC)c1ccc2nc3c(O)c(Br)cc(Br)c3nc2c1Br [Compound 35]	0.15 µM	0.1 µM	0.30 µM	MRSA BAA-1707 MBEC (MRSA BAA-1707 biofilms; CBD): 4.69 µM; MRSE 35984 MBEC (MRSE 35984 biofilms): 1.56 µM
CCc1cccc2nc3c(Br)cc(Br)c(O)c3nc12 [Compound 37]	>100 µM	>100 µM	>100 µM	–
CCOC(=O)c1ccc2nc3c(O)c(Br)cc(Br)c3nc2c1 [Compound 38]	>100 µM	–	–	–
Cc1ccc2nc3c(Br)cc(Br)c(O)c3nc2c1C [Compound 57A]	>100 ^ μM	>100 µM	>100 µM	–
CCc1cccc2nc3c(Br)cc(Br)c(O)c3nc12 [Compound 58A]	>100 ^ μM	>100 µM	>100 µM	–
CCOc1ccc2nc3c(O)c(Br)cc(Br)c3nc2c1 [Compound 60A]	>100 ^ μM	18.8^a μM	>100 µM	–
CCOC(=O)c1ccc2nc3c(O)c(Br)cc(Br)c3nc2c1 [Compound 62A]	–	–	2.35^a μM	–
CCCc1cn(Cc2ccc3nc4c(OC(C)=O)c(Br)cc(Br)c4nc3c2)nn1 [Compound 74A]	100 ^ μM	–	>100 µM	–
COCCOCCOCCOCCOC(=O)Oc1c(Br)cc(Br)c2nc3cc(Oc4ccccc4)ccc3nc12 [Compound 78A]	0.1^b μM	0.1^b μM	0.3^a μM	Hemolysis at 200 μM (human red blood cells): ≤1%; MRSA BAA-1707 MBEC (MRSA BAA-1707 biofilms; CBD): 4.69 µM; MRSA BAA-1707 MBC (MRSA BAA-1707 biofilms; CBD, planktonic killing): 18.8 µM
OC[C@H]1O[C@@H](Oc2c(Br)cc(Br)c3nc4ccccc4nc23)[C@H](O)[C@@H](O)[C@@H]1O [Compound 79A]	–	–	–	Hemolysis at 200 μM (human red blood cells): ≤1%
COCCOCCOCCOC(=O)OCOc1c(Br)cc(Br)c2nc3ccccc3nc12 [Compound 80A]	>100 µM	>100 µM	>100 µM	Hemolysis at 200 μM (human red blood cells): 1.4%
Cc1ccc2nc3c(O)c(Br)cc(Br)c3nc2c1C [HP 1-19]	–	–	–	Hemolysis at 200 μM (human red blood cells; human, 1 h, 200 μM, pH 7.2): 5.3%; MIC (MRSE 35984; Staphylococcus epidermidis, MRSE, read-out: MRSE 35984 MIC, 16 to 18 hours at 37° C.): 0.3 µM (≈ 0.115 µg/mL); MIC (VRE 700221; Enterococcus, VRE, read-out: VRE 700221 MIC, 16 to 18 hours at 37° C.): 0.15 µM (≈ 0.0573 µg/mL)
CCCc1cn(Cc2ccc3nc4c(OC(C)=O)c(Br)cc(Br)c4nc3c2)nn1 [compound 74]	–	18.8 µM	–	–
CC(=O)NC[C@H]1CN(c2ccc(N3CCOCC3)c(F)c2)C(=O)O1 [linezolid, reference compound]	12.5 ^ μM	–	–	Hemolysis at 200 μM (human red blood cells; human, 1 h, 200 μM, pH 7.2): ≤1%; MBC (MRSA BAA-1707 biofilms; Staphylococcus aureus, read-out: MRSA BAA-1707 MBC): 31.3 µM (≈ 10.6 µg/mL); biofilm eradication activities against MRSA biofilms (MRSA BAA-1707 biofilms; at 2,000 μM (highest concentration tested)): no biofilm eradication activities
